Laboratory results: ChEMBL document CHEMBL4765476, “MCC950, a NLRP3 inhibitor, ameliorates lipopolysaccharide-induced lung inflammation in mice” (Bioorg Med Chem, 2021)
The source made the active and inactive calls. No cut-off for these calls is given here.

How the values were obtained:
[1] = tested on: Mus musculus; experiment: Antiinflammatory activity in ICR mouse assessed as reduction in LPS-induced neutrophils in BALF at 10 mg/kg, INH administered 18 hrs before LPS-stimulation and measured after 24 hrs by FACS analysis relative to control; type: functional; conditions: time 42 hrs
[2] = tested on: Mus musculus; experiment: Antiinflammatory activity in ICR mouse assessed as reduction in LPS-induced neutrophils in BALF at 50 mg/kg, INH administered 18 hrs before LPS-stimulation and measured after 24 hrs by FACS analysis relative to control; type: functional; conditions: time 42 hrs
[3] = tested on: Mus musculus; experiment: Antiinflammatory activity in ICR mouse assessed as reduction in LPS-induced macrophages level in BALF at 10 mg/kg, INH administered 18 hrs before LPS-stimulation and measured after 24 hrs by FACS analysis relative to control; type: functional; conditions: time 42 hrs
[4] = tested on: Mus musculus; experiment: Antiinflammatory activity in ICR mouse assessed as reduction in LPS-induced macrophages level in BALF at 50 mg/kg, INH administered 18 hrs before LPS-stimulation and measured after 24 hrs by FACS analysis relative to control; type: functional; conditions: time 42 hrs
[5] = tested on: Mus musculus; experiment: Antiinflammatory activity in ICR mouse assessed as reduction in LPS-induced lymphocyte level in BALF at 10 mg/kg, INH administered 18 hrs before LPS-stimulation and measured after 24 hrs by FACS analysis relative to control; type: functional; conditions: time 42 hrs
[6] = tested on: Mus musculus; experiment: Antiinflammatory activity in ICR mouse assessed as reduction in LPS-induced lymphocyte level in BALF at 50 mg/kg, INH administered 18 hrs before LPS-stimulation and measured after 24 hrs by FACS analysis relative to control; type: functional; conditions: time 42 hrs
[7] = tested on: Mus musculus; experiment: Antiinflammatory activity in ICR mouse assessed as reduction in LPS-induced neutrophils in BALF at 10 mg/kg, ip administered 18 hrs before LPS-stimulation and measured after 24 hrs by FACS analysis relative to control; type: functional; conditions: time 42 hrs
[8] = tested on: Mus musculus; experiment: Antiinflammatory activity in ICR mouse assessed as reduction in LPS-induced neutrophils in BALF at 50 mg/kg, ip administered 18 hrs before LPS-stimulation and measured after 24 hrs by FACS analysis relative to control; type: functional; conditions: time 42 hrs
[9] = tested on: Mus musculus; experiment: Antiinflammatory activity in ICR mouse assessed as reduction in LPS-induced macrophage level in BALF at 10 mg/kg, ip administered 18 hrs before LPS-stimulation and measured after 24 hrs by FACS analysis relative to control; type: functional; conditions: time 42 hrs
[10] = tested on: Mus musculus; experiment: Antiinflammatory activity in ICR mouse assessed as reduction in LPS-induced macrophage level in BALF at 50 mg/kg, ip administered 18 hrs before LPS-stimulation and measured after 24 hrs by FACS analysis relative to control; type: functional; conditions: time 42 hrs
[11] = tested on: Mus musculus; experiment: Antiinflammatory activity in ICR mouse assessed as reduction in LPS-induced lymphocyte level in BALF at 10 mg/kg, ip administered 18 hrs before LPS-stimulation and measured after 24 hrs by FACS analysis relative to control; type: functional; conditions: time 42 hrs
[12] = tested on: Mus musculus; experiment: Antiinflammatory activity in ICR mouse assessed as reduction in LPS-induced lymphocyte level in BALF at 50 mg/kg, ip administered 18 hrs before LPS-stimulation and measured after 24 hrs by FACS analysis relative to control; type: functional; conditions: time 42 hrs
[13] = tested on: Mus musculus; experiment: Antiinflammatory activity in ICR mouse assessed as reduction in LPS-induced neutrophil infiltration in lungs at 10 mg/kg, INH administered 18 hrs before LPS-stimulation and measured after 24 hrs by H and E staining based imaging analysis relative to control; type: functional; conditions: time 42 hrs
[14] = tested on: Mus musculus; experiment: Antiinflammatory activity in ICR mouse assessed as reduction in LPS-induced neutrophil infiltration in lungs at 50 mg/kg, INH administered 18 hrs before LPS-stimulation and measured after 24 hrs by H and E staining based imaging analysis relative to control; type: functional; conditions: time 42 hrs
[15] = tested on: Mus musculus; experiment: Antiinflammatory activity in ICR mouse assessed as reduction in LPS-induced neutrophil infiltration in lungs at 10 mg/kg, ip administered 18 hrs before LPS-stimulation and measured after 24 hrs by H and E staining based imaging analysis relative to control; type: functional; conditions: time 42 hrs
[16] = tested on: Mus musculus; experiment: Antiinflammatory activity in ICR mouse assessed as reduction in LPS-induced neutrophil infiltration in lungs at 50 mg/kg, ip administered 18 hrs before LPS-stimulation and measured after 24 hrs by H and E staining based imaging analysis relative to control; type: functional; conditions: time 42 hrs
[17] = organism: Mus musculus; conditions: ICR, dose 10-50 mg/kg, time 42.0 hrs
[18] = organism: Mus musculus; conditions: ICR, dose 10-50 mg/kg, time 42.0 hrs; remark: listed apart in the source
[19] = organism: Mus musculus; conditions: ICR, dose 10-50 mg/kg, time 42.0 hrs; remark: listed apart in the source
[20] = organism: Mus musculus; conditions: ICR, dose 50.0 mg/kg, time 42.0 hrs
[21] = organism: Mus musculus; conditions: ICR, dose 10.0 mg/kg, time 42.0 hrs
[22] = organism: Mus musculus; conditions: ICR, dose 10-50 mg/kg, time 42.0 hrs; remark: listed apart in the source
[23] = organism: Mus musculus; conditions: ICR, dose 10-50 mg/kg, time 42.0 hrs; remark: listed apart in the source
[24] = organism: Mus musculus; conditions: ICR, dose 10-50 mg/kg, time 42.0 hrs; remark: listed apart in the source
[25] = organism: Mus musculus; conditions: ICR, dose 10-50 mg/kg, time 42.0 hrs; remark: listed apart in the source
[26] = organism: Mus musculus; conditions: ICR, dose 10-50 mg/kg, time 42.0 hrs; remark: listed apart in the source
[27] = organism: Mus musculus; conditions: ICR, dose 10-50 mg/kg, time 42.0 hrs; remark: listed apart in the source
[28] = organism: Mus musculus; conditions: ICR, dose 10-50 mg/kg, time 42.0 hrs; remark: listed apart in the source
[29] = organism: Mus musculus; conditions: ICR, dose 10-50 mg/kg, time 42.0 hrs; remark: listed apart in the source
[30] = organism: Mus musculus; conditions: ICR, dose 10-50 mg/kg, time 42.0 hrs; remark: listed apart in the source
[31] = organism: Mus musculus; conditions: ICR, dose 10-50 mg/kg, time 42.0 hrs; remark: listed apart in the source
[32] = organism: Mus musculus; conditions: ICR, dose 10-50 mg/kg, time 42.0 hrs; remark: listed apart in the source
[33] = organism: Mus musculus; conditions: ICR, dose 10-50 mg/kg, time 42.0 hrs; remark: listed apart in the source

Compound: CC(C)(O)c1coc(S(=O)(=O)NC(=O)Nc2c3c(cc4c2CCC4)CCC3)c1
- inhibition in vivo at 10 mg/kg [1]: 46.5%
- inhibition in vivo at 50 mg/kg [2]: 71.7%
- inhibition in vivo at 10 mg/kg [3]: 36.6%
- inhibition in vivo at 50 mg/kg [4]: 43.8%
- inhibition in vivo at 10 mg/kg [5]: 28.3%
- inhibition in vivo at 50 mg/kg [6]: 34.9%
- inhibition in vivo at 10 mg/kg [7]: 44.2%
- inhibition in vivo at 50 mg/kg [8]: 67.8%
- inhibition in vivo at 10 mg/kg [9]: 53.2%
- inhibition in vivo at 50 mg/kg [10]: 76.7%
- inhibition in vivo at 10 mg/kg [11]: 40.3%
- inhibition in vivo at 50 mg/kg [12]: 49.8%
- inhibition in vivo at 10 mg/kg [13]: 35.3%
- inhibition in vivo at 50 mg/kg [14]: 52.9%
- inhibition in vivo at 10 mg/kg [15]: 37.1%
- inhibition in vivo at 50 mg/kg [16]: 51.4%
- inhibition [17]: Active
- inhibition [18]: Active
- inhibition [19]: Active
- inhibition [20]: Active
- inhibition [21]: inactive
- inhibition [22]: Active
- inhibition [23]: Active
- inhibition [24]: Active
- inhibition [25]: Active
- inhibition [26]: Active
- inhibition [27]: Active
- inhibition [28]: Active
- inhibition [29]: Active
- inhibition [30]: Active
- inhibition [31]: Active
- inhibition [32]: Active
- inhibition [33]: Active
